{
  "source": "paper PMC12627810",
  "about": "(Nature Communications, 2025)",
  "key": {"[1]": {"target": "T1, SERT WT (Homo sapiens, UniProt P31645)", "T1 sequence (P31645 whole entry)": "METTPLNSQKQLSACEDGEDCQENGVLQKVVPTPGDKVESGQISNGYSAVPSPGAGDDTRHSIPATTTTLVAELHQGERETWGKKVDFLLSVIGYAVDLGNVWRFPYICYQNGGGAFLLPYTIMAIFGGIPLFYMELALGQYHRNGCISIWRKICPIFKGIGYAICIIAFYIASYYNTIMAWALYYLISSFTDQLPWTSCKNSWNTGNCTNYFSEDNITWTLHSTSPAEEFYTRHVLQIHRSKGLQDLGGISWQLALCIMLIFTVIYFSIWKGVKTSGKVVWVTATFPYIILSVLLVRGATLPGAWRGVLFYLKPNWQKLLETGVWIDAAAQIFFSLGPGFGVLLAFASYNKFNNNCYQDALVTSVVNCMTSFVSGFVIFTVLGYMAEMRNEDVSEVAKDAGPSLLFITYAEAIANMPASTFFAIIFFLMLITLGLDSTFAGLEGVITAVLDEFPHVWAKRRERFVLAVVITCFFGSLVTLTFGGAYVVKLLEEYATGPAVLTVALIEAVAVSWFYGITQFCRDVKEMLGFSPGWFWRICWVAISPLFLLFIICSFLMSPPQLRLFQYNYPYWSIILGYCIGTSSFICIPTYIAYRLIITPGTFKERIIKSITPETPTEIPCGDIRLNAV", "settings": "previous study; cited from earlier work"}, "[2]": {"tested_on": "SERT F556Anap (purified)", "test": "Anap fluorescence emission spectra, SERT F556Anap", "parameters": "species or system human", "settings": "200 nM ligand"}, "[3]": {"tested_on": "SERT-expressing membranes", "settings": "cited from earlier work"}, "[4]": {"target": "T1, SERT WT", "test": "[3H]5-HT uptake inhibition, intact COS-7 cells expressing SERT WT", "assay_type": "cell-based"}, "[5]": {"tested_on": "SERT F556Anap (purified)", "test": "Real-time Anap fluorescence measurements, SERT F556Anap", "assay_type": "binding, human", "settings": "200 nM vilazodone after 30 min preincubation with 100 nM imipramine, Na+"}, "[6]": {"tested_on": "SERT allosteric site", "settings": "S1-bound [3H]imipramine; cited from earlier work"}, "[7]": {"tested_on": "SERT V86Anap (purified)", "test": "Anap fluorescence emission spectra, SERT V86Anap", "parameters": "species or system human", "settings": "200 nM ligand"}},
  "note": "Where “and” joins values, the source holds several entries; their conditions need not be identical. Equal values may be shown once. Read-outs that look alike come from different tables or passages of the source.",
  "data": [
    {"smiles": "N#Cc1ccc2[nH]cc(CCCCN3CCN(c4ccc5oc(C(N)=O)cc5c4)CC3)c2c1", "note": "[vilazodone]", "values": [
      {"measurement": "Hill coefficient of inhibition of [3H]5-HT uptake", "setting": "[1]", "value": "1.8 and ~ 1.8"},
      {"measurement": "change of F556Anap fluorescence emission", "setting": "[2]; 200 mM K+", "value": "red-shifted and increase in fluorescence"},
      {"measurement": "change of F556Anap fluorescence emission", "setting": "[2]; 200 mM NMDG+", "value": "decrease in quantum yield and a blue-shift"},
      {"measurement": "change of F556Anap fluorescence emission", "setting": "[2]; 200 mM Na+", "value": "large decrease in intensity accompanied by a blue-shift"},
      {"measurement": "affinity, SERT-expressing membranes", "setting": "[3]; K+", "value": 36.7, "unit": "nM"},
      {"measurement": "affinity, SERT-expressing membranes", "setting": "[3]; Na+", "value": 5.8, "unit": "nM"},
      {"measurement": "Hill coefficient (vilazodone)", "setting": "[4]; SERT WT", "value": "> 1"},
      {"measurement": "5-HT uptake inhibition by vilazodone in presence of Fab 15B8", "setting": "[4]; preincubation with 100 nM Fab 15B8 vs buffer, whole cells", "value": "unchanged"},
      {"measurement": "τ of time-dependent change in fluorescence, imipramine-bound SERT", "setting": "[5]", "value": "0.8 ± 0.18", "unit": "min"},
      {"measurement": "allosteric potency (inhibition of dissociation of pre-bound [3H]imipramine)", "setting": "[6]", "value": "14 nM and ~ 14 nM"},
      {"measurement": "change of V86Anap fluorescence emission", "setting": "[7]; 200 mM K+", "value": "increasing the fluorescence"},
      {"measurement": "change of V86Anap fluorescence emission", "setting": "[7]; 200 mM Na+", "value": "decreased the fluorescence"}
    ]}
  ]
}
